Results published in PubChem BioAssay (NCI).
Several values for one entry are separate records, joined by “and”; a condition that tells them apart may be missing. Equal values may be shown once.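 A five-concentration, 48-hour dose response in 96-well plates underlies each endpoint, interpolated linearly between surrounding concentrations. GI50 = concentration required for 50% inhibition of growth. TGI denotes the concentration required for complete inhibition of growth.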

Columns and labels:
Assay in all cases: NCI anticancer screen, dose series, 48 h
NCI-H23 lung = tested on: NCI-H23 lung
EKVX NSCLC = tested on: EKVX NSCLC
SK-OV-3 ovarian = tested on: SK-OV-3 ovarian
TK-10 renal = tested on: TK-10 renal
MALME-3M melanoma = tested on: MALME-3M melanoma
DLD-1 colon = tested on: DLD-1 colon
UACC-62 melanoma = tested on: UACC-62 melanoma
SK-MEL-2 melanoma = tested on: SK-MEL-2 melanoma
LXFL 529 NSCLC = tested on: LXFL 529 NSCLC
OVCAR-4 ovarian = tested on: OVCAR-4 ovarian
RPMI-8226 leukemia = tested on: RPMI-8226 leukemia

## O=S(=O)(N/N=C/c1ccc(Cl)cc1Cl)c1ccccc1
NCI-H23 lung
  TGI: > 100 µM
EKVX NSCLC
  TGI: > 100 µM
SK-OV-3 ovarian
  TGI: > 100 µM
TK-10 renal
  TGI: > 100 µM
MALME-3M melanoma
  TGI: > 100 µM
DLD-1 colon
  TGI: > 100 µM
UACC-62 melanoma
  TGI: > 100 µM
SK-MEL-2 melanoma
  TGI: > 100 µM
LXFL 529 NSCLC
  TGI: > 100 µM
OVCAR-4 ovarian
  TGI: > 100 µM
RPMI-8226 leukemia
  TGI: > 100 µM

## CCOC(=O)c1cn(CC)c2cc3c(cc2c1=O)SCS3
NCI-H23 lung
  TGI: > 100 µM
EKVX NSCLC
  TGI: > 100 µM
SK-OV-3 ovarian
  TGI: > 100 µM
TK-10 renal
  TGI: > 100 µM
MALME-3M melanoma
  TGI: > 100 µM
DLD-1 colon
  TGI: > 100 µM
UACC-62 melanoma
  TGI: > 100 µM
SK-MEL-2 melanoma
  TGI: > 100 µM
LXFL 529 NSCLC
  TGI: > 100 µM
OVCAR-4 ovarian
  TGI: > 100 µM
RPMI-8226 leukemia
  TGI: > 100 µM

## [O-][n+]1c2cc(CN3CCOCC3)c(CN3CCOCC3)cc2[n+]([O-])c2c(O)cccc21
NCI-H23 lung
  TGI: 8.88 µM
EKVX NSCLC
  TGI: 20.2 µM
SK-OV-3 ovarian
  TGI: 13.5 µM
TK-10 renal
  TGI: > 42 µM
MALME-3M melanoma
  TGI: 25.3 µM
DLD-1 colon
  TGI: 6.8 µM
UACC-62 melanoma
  TGI: 12.9 µM
SK-MEL-2 melanoma
  TGI: 12.1 µM
LXFL 529 NSCLC
  TGI: 7.73 µM
OVCAR-4 ovarian
  TGI: 9.81 µM
RPMI-8226 leukemia
  TGI: 12.2 µM

## COc1ccc(/C=N\O[Si](C)(C)C(C)(C)C)cc1O[Si](C)(C)C(C)(C)C
NCI-H23 lung
  TGI: 37.1 µM
EKVX NSCLC
  TGI: 41.6 µM
SK-OV-3 ovarian
  TGI: 46.5 µM
TK-10 renal
  TGI: 36.3 µM
MALME-3M melanoma
  TGI: 37.4 µM
DLD-1 colon
  TGI: 32.9 µM
UACC-62 melanoma
  TGI: 40.2 µM
SK-MEL-2 melanoma
  TGI: 31.5 µM
LXFL 529 NSCLC
  TGI: 29.9 µM
OVCAR-4 ovarian
  TGI: 46.3 µM
RPMI-8226 leukemia
  TGI: 39 µM

## c1ccc2c(CN3CCC(C4CCN(Cc5cccc6ccccc56)CC4)CC3)cccc2c1
NCI-H23 lung
  GI50: 23.2 µM and > 100 µM
  TGI: > 100 µM
EKVX NSCLC
  GI50: 35.1 µM and > 91.4 µM
  TGI: > 100 µM
SK-OV-3 ovarian
  TGI: 75.2 µM and > 100 µM
TK-10 renal
  TGI: 42.8 µM and > 31.6 µM
MALME-3M melanoma
  TGI: 4.87 µM and 14.6 µM
DLD-1 colon
  TGI: 26.8 µM
UACC-62 melanoma
  TGI: 17.5 µM and 20.9 µM
SK-MEL-2 melanoma
  TGI: 15.2 µM and 37.1 µM
LXFL 529 NSCLC
  TGI: 21.8 µM
OVCAR-4 ovarian
  GI50: 13.6 µM and 35.9 µM
  TGI: 38.2 µM and > 100 µM
RPMI-8226 leukemia
  TGI: 15 µM and 10.9 µM

## CC(=O)O[C@H]1CC[C@@]2(C)C(=C/C(=N\[N+](=O)[O-])[C@H]3C4CCC([C@H](C)CCCC(C)C)[C@@]4(C)CCC32)C1 (some centres not stated)
NCI-H23 lung
  TGI: > 100 µM
EKVX NSCLC
  TGI: > 100 µM
SK-OV-3 ovarian
  TGI: > 100 µM
TK-10 renal
  TGI: > 100 µM
MALME-3M melanoma
  TGI: > 100 µM
DLD-1 colon
  TGI: > 100 µM
UACC-62 melanoma
  TGI: > 100 µM
SK-MEL-2 melanoma
  TGI: > 100 µM
LXFL 529 NSCLC
  TGI: > 100 µM
OVCAR-4 ovarian
  TGI: > 100 µM
RPMI-8226 leukemia
  TGI: > 100 µM

## O=C(O)c1cc(=O)c2cc(C(=O)c3cccs3)c(Cl)c(Cl)c2o1
NCI-H23 lung
  TGI: > 100 µM
EKVX NSCLC
  TGI: > 100 µM
SK-OV-3 ovarian
  TGI: > 100 µM
TK-10 renal
  TGI: > 100 µM
MALME-3M melanoma
  TGI: > 100 µM
DLD-1 colon
  TGI: > 100 µM
UACC-62 melanoma
  TGI: > 100 µM
SK-MEL-2 melanoma
  TGI: > 100 µM
LXFL 529 NSCLC
  TGI: > 100 µM
OVCAR-4 ovarian
  TGI: > 100 µM
RPMI-8226 leukemia
  TGI: > 100 µM

## Nc1ccc(C2=Nc3ccccc3SC(c3ccccc3O)C2)cc1 (configuration not stated)
NCI-H23 lung
  TGI: > 100 µM
EKVX NSCLC
  TGI: > 100 µM
SK-OV-3 ovarian
  TGI: > 100 µM
TK-10 renal
  TGI: > 100 µM
MALME-3M melanoma
  TGI: > 100 µM
DLD-1 colon
  TGI: > 100 µM
UACC-62 melanoma
  TGI: > 100 µM
SK-MEL-2 melanoma
  TGI: > 100 µM
LXFL 529 NSCLC
  TGI: > 100 µM
OVCAR-4 ovarian
  TGI: > 100 µM
RPMI-8226 leukemia
  TGI: 49.7 µM

## O=C(O)C1CC2CC(=O)C1C2 (configuration not stated)
NCI-H23 lung
  TGI: > 100 µM
EKVX NSCLC
  TGI: > 100 µM
SK-OV-3 ovarian
  TGI: > 100 µM
TK-10 renal
  TGI: > 100 µM
MALME-3M melanoma
  TGI: > 100 µM
DLD-1 colon
  TGI: > 100 µM
UACC-62 melanoma
  TGI: > 100 µM
SK-MEL-2 melanoma
  TGI: > 100 µM
LXFL 529 NSCLC
  TGI: > 100 µM
OVCAR-4 ovarian
  TGI: > 100 µM
RPMI-8226 leukemia
  TGI: > 100 µM
